Data from PubChem BioAssay AID328 (DTP/NCI, 2004).
Where “and” joins values, the source holds several entries; their conditions need not be identical. Equal entries are not always repeated. Toxic doses and inconclusive results are not listed.

System: BDF1 mice, P388 leukemia ip, median survival T/C
Assay: NCI In Vivo Anticancer Drug Screen. Data for tumor model P388 Leukemia (intraperitoneal) in B6D2F1 (BDF1) mice
Conditions: endpoint: median survival time, higher = longer survival
Experimental: The antitumor activity of compounds was measured in mice bearing transplantable tumors. Survival or tumor size were measured and the results are expressed as the measurement made in the treated group (T) divided by the measurement made in the vehicle treated control group (C). The tumor model used in this assay is P388 Leukemia (intraperitoneal) in B6D2F1 (BDF1) mice

[1] = dose: 100.0 mg/kg/injection, schedule: Q01DX009 (ip), vehicle: saline
[2] = dose: 100.0 mg/kg/injection, schedule: Q04DX003 (ip), vehicle: Klucel (hydroxypropylcellulose) (HPC)
[3] = dose: 200.0 mg/kg/injection, schedule: Q01DX009 (ip), vehicle: saline
[4] = dose: 200.0 mg/kg/injection, schedule: Q04DX003 (ip), vehicle: Klucel (hydroxypropylcellulose) (HPC)
[5] = dose: 400.0 mg/kg/injection, schedule: Q04DX003 (ip), vehicle: Klucel (hydroxypropylcellulose) (HPC)
[6] = dose: 50.0 mg/kg/injection, schedule: Q04DX003 (ip), vehicle: water
[7] = dose: 100.0 mg/kg/injection, schedule: Q04DX003 (ip), vehicle: water
[8] = dose: 100.0 mg/kg/injection, schedule: Q01DX001 (ip), vehicle: saline with Tween-80
[9] = dose: 200.0 mg/kg/injection, schedule: Q01DX001 (ip), vehicle: saline with Tween-80
[10] = dose: 400.0 mg/kg/injection, schedule: Q01DX001 (ip), vehicle: saline with Tween-80
[11] = dose: 50.0 mg/kg/injection, schedule: Q01DX009 (ip), vehicle: saline with Tween-80
[12] = dose: 100.0 mg/kg/injection, schedule: Q01DX009 (ip), vehicle: saline with Tween-80
[13] = dose: 200.0 mg/kg/injection, schedule: Q04DX003 (ip), vehicle: saline with Tween-80
[14] = dose: 100.0 mg/kg/injection, schedule: Q04DX003 (ip), vehicle: saline with Tween-80
[15] = dose: 400.0 mg/kg/injection, schedule: Q04DX003 (ip), vehicle: saline with Tween-80
[16] = dose: 6.25 mg/kg/injection, schedule: Q04DX003 (ip), vehicle: saline
[17] = dose: 12.5 mg/kg/injection, schedule: Q04DX003 (ip), vehicle: saline
[18] = dose: 25.0 mg/kg/injection, schedule: Q04DX003 (ip), vehicle: saline
[19] = dose: 100.0 mg/kg/injection, schedule: Q01DX009 (ip), vehicle: Klucel (hydroxypropylcellulose) (HPC)
[20] = dose: 200.0 mg/kg/injection, schedule: Q01DX009 (ip), vehicle: saline with Tween-80

## O=[N+]([O-])c1ccc(NCc2ccccc2)c2c1no[n+]2[O-]
dose: 35.0 mg/kg/injection, schedule: Q01DX009 (ip), vehicle: saline with Tween-80
  T/C: 92 % of control
dose: 70.0 mg/kg/injection, schedule: Q01DX009 (ip), vehicle: saline with Tween-80
  T/C: 91 % of control
dose: 140.0 mg/kg/injection, schedule: Q01DX009 (ip), vehicle: saline with Tween-80
  T/C: 92 % of control

## Nc1nc(SCc2ccccc2Cl)c2ncn(C3OC(CO)C(O)C3O)c2n1 (stereo not given)
[1]
  T/C: 105 % of control
[2]
  T/C: 100 % of control
[3]
  T/C: 90 % of control
[4]
  T/C: 118 % of control
[5]
  T/C: 118 % of control

## [O-][n+]1ccccc1Br
[6]
  T/C: 91 % of control
[7]
  T/C: 91 % of control

## CCOC(=O)/C(C#N)=C1\CCc2cc(OC)ccc21
[8]
  T/C: 92 % of control
[9]
  T/C: 88 % of control
[10]
  T/C: 88 % of control

## O=c1[nH]nc(-c2ccccc2)nc1/C(=N\Nc1ccccc1)c1ccccc1
dose: 1.56 mg/kg/injection, schedule: Q01DX009 (ip), vehicle: saline with Tween-80
  T/C: 92 % of control
dose: 3.12 mg/kg/injection, schedule: Q01DX009 (ip), vehicle: saline with Tween-80
  T/C: 107 % of control
dose: 6.25 mg/kg/injection, schedule: Q01DX009 (ip), vehicle: saline with Tween-80
  T/C: 95 % of control and 98 % of control
dose: 12.5 mg/kg/injection, schedule: Q01DX009 (ip), vehicle: saline with Tween-80
  T/C: 101 % of control
dose: 25.0 mg/kg/injection, schedule: Q01DX009 (ip), vehicle: saline with Tween-80
  T/C: 92 % of control

## CC(C)(C)[Si](OC(=O)N(CCCl)CCCl)(c1ccccc1)c1ccccc1
dose: 50.0 mg/kg/injection, schedule: Q01DX001 (ip), vehicle: saline with Tween-80
  T/C: 100 % of control
[8]
  T/C: 118 % of control and 124 % of control

## CCCCNC(C)(C)C(SS)c1cccs1 (stereo not given)
dose: 100.0 mg/kg/injection, schedule: Q04DX003 (ip), vehicle: other
  T/C: 100 % of control
dose: 200.0 mg/kg/injection, schedule: Q04DX003 (ip), vehicle: other
  T/C: 100 % of control

## Cc1ccc(C(SCC(N)C(=O)O)(c2ccccc2)c2ccc(C)cc2)cc1 (stereo not given)
[11]
  T/C: 268 % of control
[12]
  T/C: 172 % of control
dose: 132.0 mg/kg/injection, schedule: Q04DX003 (ip), vehicle: saline with Tween-80
  T/C: 190 % of control
[13]
  T/C: 231 % of control

## COc1cc2cc(c1Cl)N(C)C(=O)/C=C/C1(C)OC1C(C)C1CC(O)(NC(=O)O1)C(OC)C=C/C=C(\C)C2 (stereo not given)
dose: 0.2 micrograms/kg/injection, schedule: Q01DX009 (ip), vehicle: saline + alcohol
  T/C: 90 % of control
dose: 0.4 micrograms/kg/injection, schedule: Q01DX009 (ip), vehicle: saline + alcohol
  T/C: 90 % of control
dose: 0.8 micrograms/kg/injection, schedule: Q01DX009 (ip), vehicle: saline + alcohol
  T/C: 90 % of control
dose: 1.6 micrograms/kg/injection, schedule: Q01DX009 (ip), vehicle: saline + alcohol
  T/C: 90 % of control
dose: 3.1 micrograms/kg/injection, schedule: Q01DX009 (ip), vehicle: saline + alcohol
  T/C: 90 % of control
dose: 100.0 micrograms/kg/injection, schedule: Q01DX009 (ip), vehicle: saline + alcohol
  T/C: 110 % of control

## C=CC1CN2CCC1CC2C(O)c1ccnc2ccc(OC)cc12 (stereo not given)
dose: 50.0 mg/kg/injection, schedule: Q01DX009 (ip), vehicle: saline
  T/C: 120 % of control
[1]
  T/C: 95 % of control
[3]
  T/C: 100 % of control

## CC1CCC[N-]C1.CC1CCC[N-]C1.CC1CCC[N-]C1.CC1CCC[N-]C1.[Cl][Rh][Cl] (stereo not given)
dose: 3.0 mg/kg/injection, schedule: Q01DX009 (ip), vehicle: Klucel (hydroxypropylcellulose) (HPC)
  T/C: 162 % of control

## Cc1cccc(NC(=S)N(C)C)c1
[14]
  T/C: 95 % of control
[13]
  T/C: 100 % of control
[15]
  T/C: 100 % of control

## CN1C=c2c3c(ccc2=C2C=CC4C=C5OCOC5=CC4=C21)OCO3 (stereo not given)
dose: 5.0 mg/kg/injection, schedule: Q01DX010 (ip), vehicle: saline
  T/C: 110 % of control
[16]
  T/C: 100 % of control
dose: 10.0 mg/kg/injection, schedule: Q01DX010 (ip), vehicle: saline
  T/C: 100 % of control
[17]
  T/C: 100 % of control
dose: 20.0 mg/kg/injection, schedule: Q01DX010 (ip), vehicle: saline
  T/C: 105 % of control
[18]
  T/C: 109 % of control

## CC1(c2cccc3ccccc23)NC(=O)c2ccccc2N1 (stereo not given)
dose: 50.0 mg/kg/injection, schedule: Q01DX009 (ip), vehicle: Klucel (hydroxypropylcellulose) (HPC)
  T/C: 105 % of control
[19]
  T/C: 120 % of control

## Oc1c(Cl)cc(Cl)cc1C1Nc2ccccc2-n2cccc21 (stereo not given)
[20]
  T/C: 88 % of control

## COc1ccccc1/C=N/NC(=O)c1ccccc1
[14]
  T/C: 100 % of control
[13]
  T/C: 104 % of control
[15]
  T/C: 104 % of control

## COc1cc2c(cc1OC)C(=O)C(C(=O)c1ccccc1)C2 (stereo not given)
[19]
  T/C: 100 % of control
[2]
  T/C: 100 % of control
dose: 200.0 mg/kg/injection, schedule: Q01DX009 (ip), vehicle: Klucel (hydroxypropylcellulose) (HPC)
  T/C: 100 % of control
[4]
  T/C: 100 % of control
dose: 400.0 mg/kg/injection, schedule: Q01DX009 (ip), vehicle: Klucel (hydroxypropylcellulose) (HPC)
  T/C: 91 % of control
[5]
  T/C: 112 % of control

## CN(C)CC(=O)c1ccc(O)c(O)c1
dose: 300.0 mg/kg/injection, schedule: Q01DX010 (ip), vehicle: saline
  T/C: 150 % of control

## C=CCNCCN1CCN(CCCN2c3ccccc3Sc3ccc(C(F)(F)F)cc32)CC1
[16]
  T/C: 108 % of control and 110 % of control
[17]
  T/C: 87 % of control and 110 % of control
[18]
  T/C: 100 % of control and 118 % of control
dose: 50.0 mg/kg/injection, schedule: Q04DX003 (ip), vehicle: saline
  T/C: 116 % of control

## O=c1cn[nH]c(=O)[nH]1
dose: 62.5 mg/kg/injection, schedule: Q01DX010 (ip), vehicle: saline
  T/C: 100 % of control
dose: 125.0 mg/kg/injection, schedule: Q01DX010 (ip), vehicle: saline
  T/C: 100 % of control
dose: 250.0 mg/kg/injection, schedule: Q01DX010 (ip), vehicle: saline
  T/C: 100 % of control
dose: 500.0 mg/kg/injection, schedule: Q01DX010 (ip), vehicle: saline
  T/C: 95 % of control

## c1ccc(SCC2c3ccccc3Nc3ccccc32)cc1
[8]
  T/C: 109 % of control
[9]
  T/C: 114 % of control
[10]
  T/C: 109 % of control

## CC1(C)CNC2OC1NCC2(C)C
dose: 100.0 mg/kg/injection, schedule: Q01DX001 (ip), vehicle: saline sonified
  T/C: 100 % of control
dose: 200.0 mg/kg/injection, schedule: Q01DX001 (ip), vehicle: saline sonified
  T/C: 100 % of control
dose: 400.0 mg/kg/injection, schedule: Q01DX001 (ip), vehicle: saline sonified
  T/C: 104 % of control

## COc1ccc(C(=O)C/C(=N\N(C(=O)c2ccc(OC)cc2)c2ccccc2)c2ccc(OC)cc2)cc1
[11]
  T/C: 104 % of control
[12]
  T/C: 100 % of control
[20]
  T/C: 100 % of control

## COC(=O)c1cncc(C(=O)OC)c1
[14]
  T/C: 100 % of control
dose: 176.0 mg/kg/injection, schedule: Q04DX003 (ip), vehicle: saline with Tween-80
  T/C: 100 % of control
[13]
  T/C: 95 % of control
dose: 264.0 mg/kg/injection, schedule: Q04DX003 (ip), vehicle: saline with Tween-80
  T/C: 100 % of control
[15]
  T/C: 100 % of control

## CC1CC/C(=N\N(C)C)c2ccccc21 (stereo not given)
dose: 67.0 mg/kg/injection, schedule: Q04DX003 (ip), vehicle: saline with Tween-80
  T/C: 118 % of control
[14]
  T/C: 122 % of control
[15]
  T/C: 120 % of control

## Cc1cnccc1Br
dose: 12.5 mg/kg/injection, schedule: Q04DX003 (ip), vehicle: water
  T/C: 103 % of control
dose: 25.0 mg/kg/injection, schedule: Q04DX003 (ip), vehicle: water
  T/C: 103 % of control
[6]
  T/C: 103 % of control
[7]
  T/C: 97 % of control
dose: 200.0 mg/kg/injection, schedule: Q04DX003 (ip), vehicle: water
  T/C: 94 % of control

## Cc1cc(=O)[nH]c2c1ccc1[nH]c(=O)cc(C)c12
dose: 100.0 mg/kg/injection, schedule: Q01DX001 (ip), vehicle: Klucel (hydroxypropylcellulose) (HPC)
  T/C: 91 % of control
dose: 200.0 mg/kg/injection, schedule: Q01DX001 (ip), vehicle: Klucel (hydroxypropylcellulose) (HPC)
  T/C: 87 % of control
